What was measured:
Assay in all cases: post-emergence herbicidal activity, greenhouse
Type in all cases: in vivo
Conditions in all cases: Table II
Yellow Nutsedge = tested on: Yellow Nutsedge
Source text: (§1) A good grade of top soil is placed in aluminum pans having holes in the bottom and compacted to a depth of 0.95 to 1.27 cm. from the top of the pan. A predetermined number of seeds of each of several dicotyledonous and moncotyledonous annual plant species and/or vegetative propagules for the perennial plant species were placed on the soil and pressed into the soil surface. The seeds and/or vegetative propagules are covered with soil and leveled. The pans are then placed on a sand bench in the greenhouse and watered from below as needed. After the plants reach the desired age (two to three weeks), each pan, except for the control pans, is removed individually to a spraying chamber and sprayed by means of an atomizer at the rates noted. In the spray solution is an amount of an emulsifying agent mixture to give a spray solution or suspension which contains about 0.4% by weight of the emulsifier. The spray solution or suspension contains a sufficient amount of the candidate chemical in order to give application rates corresponding to those set forth in the tables. The pans were returned to the greenhouse and watered as before and the injury to the plants as compared to the control is observed at approximately two and four weeks and the results recorded. In the tables, WAT means "weeks after treatment."
(§2) The post-emergent herbicidal activity index used in Tables II and III is as follows:
(§3) The plant species utilized in these tests are identified by letter in accordance with the following legend: […]

Downy Brome = tested on: Downy Brome
Source text: as §1, §2, §3

Barnyardgrass = tested on: Barnyardgrass
Source text: as §1, §2, §3

Common Lambsquarters = tested on: Common Lambsquarters
Source text: as §1, §2, §3

Quackgrass = tested on: Quackgrass
Source text: as §1, §2, §3

Cocklebur = tested on: Cocklebur
Source text: as §1, §2, §3

Johnsongrass = tested on: Johnsongrass
Source text: as §1, §2, §3

Morningglory = tested on: Morningglory
Source text: as §1, §2, §3

Pennsylvania Smartweed = tested on: Pennsylvania Smartweed
Source text: as §1, §2, §3

Canada Thistle = tested on: Canada Thistle
Source text: as §1, §2, §3

Velvetleaf = tested on: Velvetleaf
Source text: as §1, §2, §3

[1] = 2 WAT, 5.6 kg/h, formulated immediately prior to treatment
[2] = 2 WAT, 11.2 kg/h, formulated immediately prior to treatment
[3] = 4 WAT, 5.6 kg/h, formulated immediately prior to treatment
[4] = 4 WAT, 11.2 kg/h, formulated immediately prior to treatment
[5] = 2 WAT, 5.6 kg/h, formulated in anhydrous tetrahydrofuran
[6] = 2 WAT, 11.2 kg/h, formulated in anhydrous tetrahydrofuran
[7] = 4 WAT, 5.6 kg/h, formulated in anhydrous tetrahydrofuran
[8] = 4 WAT, 11.2 kg/h, formulated in anhydrous tetrahydrofuran

CC(C)(C)[Si](C)(C)OC(=O)CNCP(=O)(O[Si](C)(C)C(C)(C)C)O[Si](C)(C)C(C)(C)C [Ex. 9, Glycine, N--((Bis[((1,1-Dimethylethyl)Dimethylsilyl)Oxy]Phosphinyl)Methyl),-(1,1-Dimethylethyl)Dimethylsilylester]
Plant Response Index (G) (Yellow Nutsedge; [1]): 1 (25-49% inhibition) | Plant Response Index (G) (Yellow Nutsedge; [2]): 1 (25-49% inhibition) | Plant Response Index (G) (Yellow Nutsedge; [3]): 2 (50-74% inhibition) | Plant Response Index (G) (Yellow Nutsedge; [4]): 2 (50-74% inhibition) | Plant Response Index (J) (Downy Brome; [1]): 0 (0-24% inhibition) | Plant Response Index (J) (Downy Brome; [2]): 1 (25-49% inhibition) | Plant Response Index (J) (Downy Brome; [3]): 1 (25-49% inhibition) | Plant Response Index (J) (Downy Brome; [4]): 1 (25-49% inhibition) | Plant Response Index (K) (Barnyardgrass; [1]): 1 (25-49% inhibition) | Plant Response Index (K) (Barnyardgrass; [2]): 1 (25-49% inhibition) | Plant Response Index (K) (Barnyardgrass; [3]): 1 (25-49% inhibition) | Plant Response Index (K) (Barnyardgrass; [4]): 2 (50-74% inhibition) | Plant Response Index (E) (Common Lambsquarters; [1]): 0 (0-24% inhibition) | Plant Response Index (E) (Common Lambsquarters; [2]): 0 (0-24% inhibition) | Plant Response Index (E) (Common Lambsquarters; [3]): 1 (25-49% inhibition) | Plant Response Index (E) (Common Lambsquarters; [4]): 2 (50-74% inhibition) | Plant Response Index (H) (Quackgrass; [1]): 0 (0-24% inhibition) | Plant Response Index (H) (Quackgrass; [2]): 0 (0-24% inhibition) | Plant Response Index (H) (Quackgrass; [3]): 0 (0-24% inhibition) | Plant Response Index (H) (Quackgrass; [4]): 0 (0-24% inhibition) | Plant Response Index (B) (Cocklebur; [1]): 1 (25-49% inhibition) | Plant Response Index (B) (Cocklebur; [2]): 2 (50-74% inhibition) | Plant Response Index (B) (Cocklebur; [3]): 2 (50-74% inhibition) | Plant Response Index (B) (Cocklebur; [4]): 2 (50-74% inhibition) | Plant Response Index (I) (Johnsongrass; [1]): 1 (25-49% inhibition) | Plant Response Index (I) (Johnsongrass; [2]): 1 (25-49% inhibition) | Plant Response Index (I) (Johnsongrass; [3]): 1 (25-49% inhibition) | Plant Response Index (I) (Johnsongrass; [4]): 1 (25-49% inhibition) | Plant Response Index (D) (Morningglory; [1]): 2 (50-74% inhibition) | Plant Response Index (D) (Morningglory; [2]): 2 (50-74% inhibition) | Plant Response Index (D) (Morningglory; [3]): 2 (50-74% inhibition) | Plant Response Index (D) (Morningglory; [4]): 2 (50-74% inhibition) | Plant Response Index (F) (Pennsylvania Smartweed; [1]): 1 (25-49% inhibition) | Plant Response Index (F) (Pennsylvania Smartweed; [2]): 1 (25-49% inhibition) | Plant Response Index (F) (Pennsylvania Smartweed; [3]): 1 (25-49% inhibition) | Plant Response Index (F) (Pennsylvania Smartweed; [4]): 1 (25-49% inhibition) | Plant Response Index (A) (Canada Thistle; [1]): 1 (25-49% inhibition) | Plant Response Index (A) (Canada Thistle; [2]): 1 (25-49% inhibition) | Plant Response Index (A) (Canada Thistle; [3]): 2 (50-74% inhibition) | Plant Response Index (A) (Canada Thistle; [4]): 1 (25-49% inhibition) | Plant Response Index (C) (Velvetleaf; [1]): 1 (25-49% inhibition) | Plant Response Index (C) (Velvetleaf; [2]): 2 (50-74% inhibition) | Plant Response Index (C) (Velvetleaf; [3]): 1 (25-49% inhibition) | Plant Response Index (C) (Velvetleaf; [4]): 2 (50-74% inhibition)

Glycine, N-((Bis[((1,1-Dimethylethyl)Diphenylsilyl)oxy]-Phosphinyl)-Methyl)-, [(1,1-Dimethylethyl)Diphenylsilyl]Ester, (75%); Silanol, (1,1-Dimethylethyl)Diphenyl-, (25%-Mixture) [Ex. 4]
Plant Response Index (G) (Yellow Nutsedge; [5]): 0 (0-24% inhibition) | Plant Response Index (G) (Yellow Nutsedge; [6]): 0 (0-24% inhibition) | Plant Response Index (G) (Yellow Nutsedge; [7]): 1 (25-49% inhibition) | Plant Response Index (G) (Yellow Nutsedge; [8]): 2 (50-74% inhibition) | Plant Response Index (J) (Downy Brome; [5]): 0 (0-24% inhibition) | Plant Response Index (J) (Downy Brome; [6]): 0 (0-24% inhibition) | Plant Response Index (J) (Downy Brome; [7]): 0 (0-24% inhibition) | Plant Response Index (J) (Downy Brome; [8]): 0 (0-24% inhibition) | Plant Response Index (K) (Barnyardgrass; [5]): 1 (25-49% inhibition) | Plant Response Index (K) (Barnyardgrass; [6]): 1 (25-49% inhibition) | Plant Response Index (K) (Barnyardgrass; [7]): 1 (25-49% inhibition) | Plant Response Index (K) (Barnyardgrass; [8]): 1 (25-49% inhibition) | Plant Response Index (E) (Common Lambsquarters; [5]): 0 (0-24% inhibition) | Plant Response Index (E) (Common Lambsquarters; [6]): 2 (50-74% inhibition) | Plant Response Index (E) (Common Lambsquarters; [7]): 0 (0-24% inhibition) | Plant Response Index (E) (Common Lambsquarters; [8]): 3 (75-99% inhibition) | Plant Response Index (H) (Quackgrass; [5]): 0 (0-24% inhibition) | Plant Response Index (H) (Quackgrass; [6]): 1 (25-49% inhibition) | Plant Response Index (H) (Quackgrass; [7]): 0 (0-24% inhibition) | Plant Response Index (H) (Quackgrass; [8]): 2 (50-74% inhibition) | Plant Response Index (B) (Cocklebur; [5]): 1 (25-49% inhibition) | Plant Response Index (B) (Cocklebur; [6]): 2 (50-74% inhibition) | Plant Response Index (B) (Cocklebur; [7]): 1 (25-49% inhibition) | Plant Response Index (B) (Cocklebur; [8]): 2 (50-74% inhibition) | Plant Response Index (I) (Johnsongrass; [5]): 0 (0-24% inhibition) | Plant Response Index (I) (Johnsongrass; [6]): 0 (0-24% inhibition) | Plant Response Index (I) (Johnsongrass; [7]): 0 (0-24% inhibition) | Plant Response Index (I) (Johnsongrass; [8]): 1 (25-49% inhibition) | Plant Response Index (D) (Morningglory; [5]): 1 (25-49% inhibition) | Plant Response Index (D) (Morningglory; [6]): 2 (50-74% inhibition) | Plant Response Index (D) (Morningglory; [7]): 1 (25-49% inhibition) | Plant Response Index (D) (Morningglory; [8]): 2 (50-74% inhibition) | Plant Response Index (F) (Pennsylvania Smartweed; [5]): 1 (25-49% inhibition) | Plant Response Index (F) (Pennsylvania Smartweed; [6]): 2 (50-74% inhibition) | Plant Response Index (F) (Pennsylvania Smartweed; [7]): 0 (0-24% inhibition) | Plant Response Index (F) (Pennsylvania Smartweed; [8]): 2 (50-74% inhibition) | Plant Response Index (A) (Canada Thistle; [5]): 0 (0-24% inhibition) | Plant Response Index (A) (Canada Thistle; [6]): 2 (50-74% inhibition) | Plant Response Index (A) (Canada Thistle; [7]): 0 (0-24% inhibition) | Plant Response Index (A) (Canada Thistle; [8]): 2 (50-74% inhibition) | Plant Response Index (C) (Velvetleaf; [5]): 0 (0-24% inhibition) | Plant Response Index (C) (Velvetleaf; [6]): 1 (25-49% inhibition) | Plant Response Index (C) (Velvetleaf; [7]): 0 (0-24% inhibition) | Plant Response Index (C) (Velvetleaf; [8]): 1 (25-49% inhibition)
